Values joined by “and” are separate entries in the source; they are usually repeats but may differ in a detail not shown here. Equal entries are not always repeated. Where two headings read alike, the source gives them in different places.
Tests used:
[1] = tested on: SHR (Spontaneously Hypertensive Rats) rats; conditions: for Change in HR / Change in MBAP: 45-60 min
Method: (§1) A chronic indwelling catheter was implanted in the caudal artery under light anesthesia with averteen. The animals were allowed to recover and were tested 24 hours after implantation. The cathetar was connected to a Statham pressure transducer and blood pressure was recorded on a Grass multichannel Polygraph. During this period, the rat was kept in its home cage in order to minimize handling and undue manipulations known to affect blood pressure.
(§2) Two strains of rats were used: WKY rats and matching SHR (Spontaneously Hypertensive Rats) rats. WKY rats were from a local strain, weighing about 250 g each.
SHR rats were purchased from Charles River breeders, England. The animals were allowed to acclimatize and recover from the journey and were used at the age of three months, in order to match their WKY controls. SHR hypertension develops gradually from the age of one month to the age of three months. At this stage, blood pressure is already elevated above normotensive levels.
(§3) Blood pressure and heart rate were then monitored for the duration of 45-60 minutes.

[2] = tested on: male Wistar rats after middle cerebral artery occlusion (MCA-O)
Excerpt: In order to expose the left middle cerebral artery, a cut was made in the temporal muscle. The tip of the coronoid process of mandible was excised as well and removed with a fine rongeur. Craniectomy was made with a dental drill at the junction between the median wall and the roof of the inferotemporal fossa.
The dura matter was opened carefully using a 27 gauge needle. […] Following this, the temporalis muscle was sutured and laid over the craniectomy site. The skin was closed with a running 3-0 silk suture. […] The volume of brain tissue incurring damage following ischemia was determined.

SHR rats = conditions: for Change in Mean Systolic Blood Pressure / Change in Heart rate: 2 mg/kg p.o. daily
Method: (§4) Spontaneously hypertensive rats, three month-old, were used. […] Controls received an equivalent volume of tap water. Treatment lasted 14 days. During this period, systolic blood pressure was monitored on days 0, 4, 7 and 11, using a tail-cuff procedure. On day 14, systolic blood pressure was determined using the indwelling catheter procedure described in Example 7.

[3] = for Weight: 2 mg/kg/day oral
Method: as §4
The rats used in Example 8 above, were additionally monitored for weight gain/loss as an additional marker for the rate of food consumption MAO inhibitors usually elevate central catechoiamines which may depress appetite.

MAO-A/MAO-B = conditions: in vitro; in words; cited from earlier work
anesthetized cat = conditions: for Change in MABP / Change in PR: 45-60 min
Method: Cats were anesthetized with i.v. nembutal 25 mg/kg. Anesthesia was maintained by additional injections of nembutal, 5 mg/kg, as needed. The femoral artery was cannulated and connected to a Statham pressure transducer for blood pressure recordings on a Grass multichannel Polygraph. The femoral vein was cannulated for i.v. injection of drugs.

WKY rats = conditions: for Change in HR / Change in MBAP: 45-60 min
Method: as §1, §2, §3

[4] = tested on: injured mice after closed head injury (CHI); conditions: 1 mg/kg s.c. 15 min after CHI
Method: (§5) The procedure for closed head injury followed was as described for rats in Shohami et al. (J Neurotrauma (1993) 10(2) 109-119) with changes as described.
(§6) Animals: Male Sabra mice (Hebrew University strain) weighing 34-40 g were used. They were housed in groups of 10 per cage, in a 12 hr:12 hr. light:dark cycle. Food and water were provided ad libitium.
(§7) Trauma was induced under anaesthesia. A longitudinal incision was performed in the skin covering the skull and the skin retracted to expose the skull. The head was fixed manually at the lower plane of the impact apparatus. A weight of 333 g was delivered by an electric device from a distance of 3 cm to the left hemisphere, 1-2 mm lateral to the midline in the midcoronal plane.
One point was awarded for the lack of a tested reflex or for the inability to perform the task outline in the Table. The maximal score that can be reached at 1 hour post-CHI is 25 points and at later times, 21 points. The difference in NSS at 1 hr. and at any other time reflects the spontaneous recovery, and is referred to as ΔNSS. A score of 15-19 at 1 hr denotes severe injury, 11-14 denotes moderate injury and less than 10 denotes mild injury.

[5] = tested on: reserpine induced ptosis in rats; experiment: Reserpine-induced ptosis in rats; type: in vivo; conditions: for Mean score of reserpine-induced ptosis: reserpine 5 mg/kg i.p., 0-4 scale, 4 = eyes completely open, saline 0.86
Excerpt: Reserpine-induced ptosis and its reversal test. Reserpine causes depletion of catecholamine stores, especially norepinephrine. This effect in the live animal is manifested among other things, in ptosis. Drugs that can prevent or inhibit reserpine-induced ptosis act either directly as noradrenergic agonists, or indirectly by decreasing or preventing the metabolic elimination of endogenous norepinephrine. MAO inhibitors belong to the latter category.

mice after CHI = conditions: in words
Method: as §5, §6, §7

MAO mediated effects = conditions: Examples 4-9; in words

## C#CCN[C@H]1CCc2ccccc21 [S(-)PAI, S-(-)-N-propargyl-1-aminoindan]
[1]; acute oral, in words
  blood pressure and heart rate: no effect on either parameter in either strain of rats
[1]; dose 1, oral
  Change in HR: -30 beats/min
  Change in MBAP: -16 mmHg
[1]; dose 2, oral
  Change in HR: 0 beats/min
  Change in MBAP: -12 mmHg
[1]; dose 10, oral
  Change in HR: 0 beats/min
  Change in MBAP: 4 mmHg
[2]; in words
  neurological severity score (NSS) and infarct volume versus saline-treated rats: significantly lower
[2]; ip, 2 mg/kg
  Mean NSS ± SEM after 24 hours: 6.5 ± 0.48
SHR rats; day 0, tap water 169.55 ± 7.73
  Change in Mean Systolic Blood Pressure: 166.88 ± 6.11 mmHg
SHR rats; day 0, tap water 374.09 ± 7.17
  Change in Heart rate: 404.13 ± 32.86 beats/min
SHR rats; day 4, tap water 177.82 ± 9.08
  Change in Mean Systolic Blood Pressure: 168.5 ± 12.8 mmHg
SHR rats; day 4, tap water 403 ± 23.3
  Change in Heart rate: 394.5 ± 37.43 beats/min
SHR rats; day 7, tap water 177.67 ± 10.21
  Change in Mean Systolic Blood Pressure: 172.13 ± 14.62 mmHg
SHR rats; day 7, tap water 392.67 ± 24.66
  Change in Heart rate: 394.38 ± 24.47 beats/min
SHR rats; day 11, tap water 178 ± 8.65
  Change in Mean Systolic Blood Pressure: 167.43 ± 14.23 mmHg
SHR rats; day 11, tap water 371.25 ± 27.22
  Change in Heart rate: 408 ± 40.04 beats/min
SHR rats; chronic oral 2 mg/kg/day, in words
  intraindividual and interindividual profile of systolic blood pressure and heart rate: no effect
[3]; day 0, tap water 317 ± 32.64
  Weight: 294.13 ± 32.06 g
[3]; day 7, tap water 302.22 ± 35.17
  Weight: 292.25 ± 28.47 g
[3]; day 14, tap water 312.89
  Weight: 307.33 ± 24.13 g
[3]; 2 mg/kg/day, 14 days, in words
  body weight: no effect on body weight
MAO-A/MAO-B
  preference for MAO-B or MAO-A: no preference to either substrate
Anesthetized cat; dose 0.03, i.v.
  Change in MABP: 7 mmHg and 5 mmHg
Anesthetized cat; dose 0.1, i.v.
  Change in MABP: -12 mmHg
  Change in PR: 0 beats/min
Anesthetized cat; dose 1.0, i.v.
  Change in MABP: 2 mmHg
  Change in PR: -5 beats/min
Anesthetized cat; i.v., up to cumulative dose of 1 mg/kg, 45-60 minutes, in words
  mean arterial blood pressure (MABP) and heart rate (HR): neither mean arterial blood pressure (MABP) nor heart rate (HR) were affected
WKY rats; acute oral, in words
  blood pressure and heart rate: no effect on either parameter in either strain of rats
WKY rats; dose 5, oral
  Change in HR: 0 beats/min
  Change in MBAP: 0 mmHg
WKY rats; dose 10, oral
  Change in HR: 0 beats/min
  Change in MBAP: 0 mmHg
WKY rats; dose 20, oral
  Change in HR: 0 beats/min
[4]; saline 4.75 ± 0.17
  Δ NSS, 24 hr post-CHI: 5.06 ± 0.25
[4]; saline 5.83 ± 0.36
  Δ NSS, 7 days post-CHI: 7.19 ± 0.28
[4]; saline 5.96 ± 0.4
  Δ NSS, 14 days post-CHI: 7.88 ± 0.36
[5]; 5 mg/kg i.p.
  Mean score of reserpine-induced ptosis: 1.8
[5]; 10 mg/kg i.p.
  Mean score of reserpine-induced ptosis: 2.5
[5]; 20 mg/kg i.p.
  Mean score of reserpine-induced ptosis: 1.5
[5]; in words
  endogenous norepinephrine concentrations (inferred from ptosis scores): does not cause an increase in endogenous norepinephrine concentrations
Mice after CHI; FIG. 1, after CHI
  latency to find the platform, compared to saline treated controls: reduction in latency
Mice after CHI; after CHI
  memory, compared to saline-treated mice: Memory is enhanced
MAO mediated effects
  effect on several MAO mediated effects: minimal or no effect

Reference: patent US6277886A (priority 1996, dated 2001)
